The text below walks through data of ChEMBL document CHEMBL1201862, “PubChem BioAssay data set” (2004).

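Step 1: Grow cells in 96-well plates. Step 2: Expose to compound for 48 hours at 5 concentrations. Step 3: Interpolate endpoints linearly; if unreached, use highest concentration. The concentration for 50% growth inhibition is given as GI50.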 Active and inactive are the calls of the source. Cut-off read from the data, not from the text of the source: active = GI50 up to about 1.1 µM and inactive = higher.

Test systems include A498; A549; BT-549; EKVX; HOP-92; HT-29; Hs-578T; M14; MCF7; MDA-N; NCI-H226; NCI-H522; OVCAR-5; SK-MEL-5; SN12C; SR; SW-620; T47D; K562; U-251.
Common to all, as to experiment: NCI-60 cell line screen, 48 h

In the case of `NCCNc1ccc(NCCN)c2c1C(=O)c1c(O)ccc(O)c1C2=O`, the GI50 is 0.0818 µM (active) with A498; 0.00392 µM (active) with A549; 0.653 µM (active) in the assay with BT-549; 0.436 µM (active) in the assay on EKVX; 0.00686 µM (active) in the assay with HOP-92; 0.0659 µM (active) in the assay with HT-29. The GI50 in the assay with Hs-578T is 0.148 µM (active); with M14, 0.0149 µM (active); in the assay on MCF7, 0.00731 µM (active); in the assay on MDA-N it was 1.13 µM (inactive); with NCI-H226, 0.0018 µM (active); with NCI-H522, 0.0324 µM (active). Also, the GI50 in the assay on OVCAR-5 was 0.971 µM (active); with SK-MEL-5 it was 0.129 µM (active); with SN12C, 0.00483 µM (active); with SR, < 0.001 µM (active); with SW-620, 0.0246 µM (active); in the assay on T47D, 0.229 µM (active).

For the compound `CC1C2CC(C(S(=O)(=O)N3CCOCC3)/C2=N\O)C1(C)C` (stereo not drawn), the GI50 with A498, in the assay with A549, with BT-549, in the assay with EKVX, in the assay on HOP-92 and in the assay on HT-29 was > 100 µM (inactive) each time. Besides, the GI50 in the assay on Hs-578T, in the assay on K562, with M14, with MCF7, in the assay on MDA-N and in the assay with NCI-H226 was > 100 µM (inactive) each time. The GI50 in the assay on NCI-H522, in the assay on SK-MEL-5, in the assay on SN12C, in the assay on SR, in the assay with SW-620 and with T47D was > 100 µM (inactive) throughout.

In the case of `C=CCNC(=O)CN(CC(=O)O)C1CCCCC1N(CC(=O)O)CC(=O)O` (stereo not drawn), the GI50 with A498, in the assay on A549, in the assay with BT-549, in the assay on HOP-92, in the assay on HT-29 and with Hs-578T was > 100 µM (inactive) in each case. Moreover, the GI50 with K562, in the assay with MCF7, in the assay on MDA-N, in the assay on NCI-H226, in the assay with NCI-H522 and in the assay on OVCAR-5 was > 100 µM (inactive) in each case. Besides, the GI50 in the assay on SK-MEL-5, in the assay on SN12C, in the assay with SR, in the assay on SW-620, in the assay with T47D and with U-251 was > 100 µM (inactive) in each case.

For the compound `Cc1cccc2c1[nH]c1[nH]c(=O)[nH]c(=O)c12`, the GI50 with A498 was > 100 µM (inactive); with A549, > 100 µM (inactive); in the assay on BT-549, > 100 µM (inactive); in the assay on EKVX, 83.8 µM (inactive); in the assay on HOP-92, > 100 µM (inactive); in the assay on HT-29 it was > 100 µM (inactive). For the same compound, the GI50 was 53.3 µM (inactive) in the assay with Hs-578T; > 100 µM (inactive) in the assay with K562; > 100 µM (inactive) in the assay on M14; > 100 µM (inactive) in the assay with MCF7; > 100 µM (inactive) in the assay with MDA-N; > 100 µM (inactive) with NCI-H226. For the same compound, the GI50 in the assay with NCI-H522, with OVCAR-5, in the assay on SK-MEL-5, in the assay on SN12C, with SR and in the assay on SW-620 was > 100 µM (inactive) throughout. Moreover, in the assay with T47D, the GI50 was > 100 µM (inactive).
